In patent publication US6498149B1, “Natural antitumor or antiviral substances and use of the same” (Techno Seven Co., Ltd., priority 1997, dated 2002):

Legend:
[1] = system: Molt4 (human T cell leukemia cell line); test: Suppression of incorporation of 3H-thymidine into / proliferation of the Molt4 cell; assay type: cell-based; conditions: samples from single HPLC peaks, 7 μg/ml
Description: The apoptosis inducing factor (AIF) is produced and released in the supernatant of the NS cell line culture. Thus, the AIF produced by the NS cell was separated and purified by the physico-chemical methods. The activity of AIF was measured by the ability of […] and the DNA fragmentation method. First, the supernatant of the culture of the NS cell line was adsorbed on a C18 column and eluted to separate the AIF. The crude extract was developed on a thin layer chromatography (TLC) plate, and the active fractions were isolated and purified by reverse phase high performance liquid chromatography (HPLC).
The sample lyophilized from 50 ml of the supernatant of the NS cell line culture was subjected to chromatography on a C18 column (BONDELUTE), and the fraction retained in the column was separated and eluted with acetonitrile and methanol, and concentrated to dryness by evaporating the solvents with nitrogen gas.
The fraction was further developed by TLC. That is to say, the solution of the materials separated on the C18 column in chloroform: methanol (1:1) was spotted on a thin layer and developed by chloroform: methanol: distilled water (60:40:8). […]

[2] = Physico-chemical properties (solubility, acid/base nature); assay type: physicochemical

Row | SMILES | suppression of incorporation of 3H-thymidine into the Molt4 cell [1] | discrimination of acidic, neutral and basic substances [2] | solubility [2]
1 | Cc1cn([C@@H]2O[C@H](CO)[C@@H](O)[C@H]2O)c(=O)[nH]c1=O [P2, ribothymidine] | strong activity | basic substance | soluble in organic solvents such as methanol, dimethylsulfoxide and in water
2 | Cc1cn([C@H]2C[C@H](O)[C@@H](CO)O2)c(=O)[nH]c1=O [P4, thymidine] |  | basic substance | soluble in organic solvents such as methanol, dimethylsulfoxide and in water
3 | CO[C@@H]1[C@H](O)[C@@H](CO)O[C@H]1n1cnc2c(O)ncnc21 [P5, 2′-O-methylinosine] |  | basic substance | soluble in organic solvents such as methanol, dimethylsulfoxide and in water
4 | CO[C@@H]1[C@H](O)[C@@H](CO)O[C@H]1n1cnc2c(=O)[nH]c(N)nc21 [P6, 2′-O-methylguanosine] |  | basic substance | soluble in organic solvents such as methanol, dimethylsulfoxide and in water
